Laboratory results as given in patent publication US11701372B2, “Inhalation formulations of 1'-cyano substituted carba-nucleoside analogs” (priority 2020, dated 2023).
Where two headings read alike, the source gives them in different places. Marks after values point to notes of the source that are not given here.

Legend:
[1] = both, monkey, in vivo, 0.168 mg/kg
Procedure: (§1) The average deposited dose was calculated at 0.168 mg/kg and 0.536 mg/kg, respectively. Plasma, peripheral blood mononuclear cells (PBMCs), trachea, bronchi, lung lobe, liver, kidney, nasal mucosa and nasopharyngeal mucosa samples were collected in this study.

[2] = Plasma PK of Formula Ia and metabolites after inhalation in African Green Monkeys; details: both, monkey, in vivo
Procedure: as §1

[3] = PBMC concentrations of metabolites after inhalation in African Green Monkeys; details: both, monkey, in vivo
Procedure: as §1

in vivo = details: both, monkey, 0.168 mg/kg
Procedure: as §1

[4] = Respiratory tissue concentrations after inhalation in African Green Monkeys; details: 24 hours
Procedure: as §1

[5] = type: physicochemical
Procedure: For each conditions, the physical stability was measured as % LS and compared to % LS at T=0.

[6] = Nebulizer performance (PARI LC Sprint jet nebulizer); type: physicochemical; details: 5 mg/mL Formula Ia, 15% w/v SBECD, 8 mL charge; collected aerosol and residual solution
[7] = type: physicochemical; remark: listed apart in the source
Procedure: Samples for freeze-thaw cycling were also prepared and tested. For each condition, the physical stability was measured as % LS (label strength) and compared to % LS at T=0. […] The 7.5% SBECD formulation is also stable to freeze/thaw cycling (three cycles performed).

[8] = Characterisation of milled suspension formulations (osmolarity, pH, particle size); type: physicochemical; details: 0.5% w/v poloxamer 237, 0.9% sodium chloride
Procedure: The vial capped, vortexed briefly, and then placed in a Bertin Instruments Precellys® Evolution blender. The blender was used to wet mill the mixture for 15×30 second cycles, with 120 second rest time between cycles. The blender speed was 7,200 rpm and cooling set was set to high. After milling, the milled suspension was separated from the beads by withdrawing the suspension from the vial using a syringe with a 1.5'' 25G needle. The recovered volume of the concentrated suspension was noted as 2.97 mL, and the concentration was measured as 25.8 mg/mL. The suspension was diluted with 2.14 mL of vehicle to obtain the target concentration of 15 mg/mL. […] The chiller set to 30° F., pump set to 100 rpm, and agitator set to 3000 rpm. The pump was primed with 100 mL of vehicle, and the first 80 mL of flowthough from priming was sent to waste. The mill was then set to recirculate as feeding continued with the addition of 150 mL of pre-mill formulation intermediate, followed by 25 mL of vehicle rinse. The formulation was allowed to recirculate though the mill for 1 hr, after which the flow was directed to a collection bottle. After 100 mL of concentrated suspension formulation was collected in the bottle, a vehicle chase was fed into the mill. Collection was stopped when the recovered volume reached 250 mL.

SARS-CoV2-Nano viruses = assay: SARS-CoV-2 antiviral screening (A549-hACE2 cells, Nano luciferase); type: cell-based; details: Severe acute respiratory syndrome coronavirus 2, 48 h
[9] = inhaled or intranasal, 0.168 mg/kg
[10] = inhaled or intranasal, 0.536 mg/kg
[11] = 7.5% SBECD w/v, 2-8° C., 24 h timepoint
[12] = 7.5% SBECD w/v, RT, 24 h timepoint
[13] = 15 mg/mL in water with 0.1% w/v HPMC

N#C[C@@]1(c2ccc3c(N)ncnn23)O[C@H](CO)[C@@H](O)[C@H]1O [Compound A]
mean estimated terminal elimination half-life [1]: 7.58 h | concentration at 0.25 h ([2]; 0.168 mg/kg): 3 ± 1 nM | concentration at 1 h ([2]; 0.168 mg/kg): 31 ± 7 nM | concentration at 2 h ([2]; 0.168 mg/kg): 25 ± 5 nM | concentration at 24 h ([2]; 0.168 mg/kg): 2 nM | concentration at 0.75 h ([2]; 0.536 mg/kg): 29 ± 8 nM | concentration at 1.52 h ([2]; 0.536 mg/kg): 58 ± 3 nM | concentration at 2 h ([2]; 0.536 mg/kg): 71 ± 11 nM | concentration at 4 h ([2]; 0.536 mg/kg): 43 ± 9 nM | concentration at 8 h ([2]; 0.536 mg/kg): 22 ± 5 nM | concentration at 24 h ([2]; 0.536 mg/kg): 5 ± 1 nM | AUC(0-t) [2, 9]: 0.191 ± 0.03 µM·h | Cmax [2, 9]: 31 ± 7 nM | half-life [2, 9]: 7.58 ± 1.03 h | AUC(0-t) [2, 10]: 0.539 ± 0.076 µM·h | half-life [2, 10]: 7.1 ± 0.36 h | concentration at 2 h ([3]; 0.168 mg/kg): 331 ± 92 nM | concentration at 24 h ([3]; 0.536 mg/kg): 457 ± 130 nM | concentration at 24 h (in vivo): 302 ± 44 nM | Metabolite Concentrations ([4]; Lower Lung Lobe, 0.168 mg/kg inhaled deposited dose, LOQ for A and C 0.154 nmol/g tissue): BLQ | Metabolite Concentrations ([4]; Lower Lung Lobe, 0.536 mg/kg inhaled deposited dose, LLOQ for A and C 0.154 nmol/g tissue): BLQ | Metabolite Concentrations ([4]; Upper Bronchi, 0.168 mg/kg inhaled deposited dose, LOQ for A and C 0.154 nmol/g tissue): BLQ | Metabolite Concentrations ([4]; Upper Bronchi, 0.536 mg/kg inhaled deposited dose, LLOQ for A and C 0.154 nmol/g tissue): BLQ | Metabolite Concentrations ([4]; Upper Trachea, 0.168 mg/kg inhaled deposited dose, LOQ for A and C 0.154 nmol/g tissue): BLQ | Metabolite Concentrations ([4]; Upper Trachea, 0.536 mg/kg inhaled deposited dose, LLOQ for A and C 0.154 nmol/g tissue): BLQ

CCC(CC)COC(=O)[C@H](C)N[P@](=O)(OC[C@H]1O[C@@](C#N)(c2ccc3c(N)ncnn23)[C@H](O)[C@@H]1O)Oc1ccccc1 [Formula Ia, (S)-2-ethylbutyl 2-(((S)-(((2R,3S,4R,5R)-5-(4-aminopyrrolo[2,1-f][1,2,4]triazin-7-yl)-5-cyano-3,4-dihydroxytetrahydrofuran-2-yl)methoxy)(phenoxy)phosphoryl)amino)propanoate]
physical stability [5]: stable | % LS T0 ([5]; pH 3.8): 99 % LS | % LS After Stress, Hold ([5]; pH 3.8, 2-8° C. (1 wk)): 99 % LS | % LS After Stress, Hold After Seeding ([5]; pH 3.8, 2-8° C. (1 wk)): 88 % LS | % LS After Stress, Hold ([5]; pH 3.8, 2-8° C. (48 h)): 99 % LS | % LS After Stress, Hold After Seeding ([5]; pH 3.8, 2-8° C. (48 h)): 99 % LS | % LS After Stress, Hold ([5]; pH 3.8, 2-8° C. (72 h)): 99 % LS | % LS After Stress, Hold After Seeding ([5]; pH 3.8, 2-8° C. (72 h)): 99 % LS | % LS After Stress, Hold ([5]; pH 3.8, 2-8° C., 24 h): 100 % LS | % LS After Stress, Hold After Seeding ([5]; pH 3.8, 2-8° C., 24 h): 100 % LS | % LS After Stress, Freeze-thaw (3X) ([5]; pH 3.8, (+) seed): 99 % LS | % LS After Stress, Freeze-thaw (3X) ([5]; pH 3.8, (−) seed): 99 % LS | % LS After Stress, Hold ([5]; pH 3.8, RT (1 wk)): 99 % LS | % LS After Stress, Hold After Seeding ([5]; pH 3.8, RT (1 wk)): 65 % LS | % LS After Stress, Hold ([5]; pH 3.8, RT (24 h)): 100 % LS | % LS After Stress, Hold After Seeding ([5]; pH 3.8, RT (24 h)): 99 % LS | % LS After Stress, Hold ([5]; pH 3.8, RT (48 h)): 99 % LS | % LS After Stress, Hold After Seeding ([5]; pH 3.8, RT (48 h)): 99 % LS | % LS After Stress, Hold ([5]; pH 3.8, RT (72 h)): 99 % LS | % LS After Stress, Hold After Seeding ([5]; pH 3.8, RT (72 h)): 99 % LS | % LS T0 ([5]; pH 4.0): 100 % LS | % LS After Stress, Hold ([5]; pH 4.0, 2-8° C. (1 wk)): 99 % LS | % LS After Stress, Hold ([5]; pH 4.0, 2-8° C. (48 h)): 99 % LS | % LS After Stress, Hold After Seeding ([5]; pH 4.0, 2-8° C. (48 h)): 79 % LS | % LS After Stress, Hold ([5]; pH 4.0, 2-8° C. (72 h)): 100 % LS | % LS After Stress, Hold After Seeding ([5]; pH 4.0, 2-8° C. (72 h)): 67 % LS | % LS After Stress, Hold ([5]; pH 4.0, 2-8° C., 24 h): 100 % LS | % LS After Stress, Hold After Seeding ([5]; pH 4.0, 2-8° C., 24 h): 96 % LS | % LS After Stress, Freeze-thaw (3X) ([5]; pH 4.0, (+) seed): 99 % LS | % LS After Stress, Freeze-thaw (3X) ([5]; pH 4.0, (−) seed): 99 % LS | % LS After Stress, Hold ([5]; pH 4.0, RT (1 wk)): 98 % LS | % LS After Stress, Hold ([5]; pH 4.0, RT (24 h)): 100 % LS | % LS After Stress, Hold After Seeding ([5]; pH 4.0, RT (24 h)): 69 % LS | % LS After Stress, Hold ([5]; pH 4.0, RT (48 h)): 99 % LS | % LS After Stress, Hold After Seeding ([5]; pH 4.0, RT (48 h)): 60 % LS | % LS After Stress, Hold ([5]; pH 4.0, RT (72 h)): 100 % LS | % LS After Stress, Hold After Seeding ([5]; pH 4.0, RT (72 h)): 58 % LS | change in % peak area for Formula Ia or its identified impurities after nebulization [6]: No significant change | % LS (Initial) ([7]; 5% SBECD w/v): 101 % LS | % LS After Stress, Hold ([7]; 5% SBECD w/v, 2-8° C. (48 h)): 101 % LS | % LS After Stress, Hold After Seeding ([7]; 5% SBECD w/v, 2-8° C. (48 h)): 80 % LS | % LS After Stress, Hold ([7]; 5% SBECD w/v, RT (48 h)): 101 % LS | % LS After Stress, Hold After Seeding ([7]; 5% SBECD w/v, RT (48 h)): 68 % LS | % LS After Stress, Freeze-thaw (3x) ([7]; 5% SBECD w/v, after seeding): 69 % LS | % LS After Stress, Freeze-thaw (3x) ([7]; 5% SBECD w/v, without seeding): 101 % LS | % LS (Initial) ([7]; 7.5% SBECD w/v): 101 % LS | % LS After Stress, Hold [7, 11]: 104* % LS | % LS After Stress, Hold After Seeding [7, 11]: 103* % LS | % LS After Stress, Hold [7, 12]: 103* % LS | % LS After Stress, Hold After Seeding [7, 12]: 102* % LS | % LS After Stress, Freeze-thaw (3x) ([7]; 7.5% SBECD w/v, after seeding): 97 % LS | % LS After Stress, Freeze-thaw (3x) ([7]; 7.5% SBECD w/v, without seeding): 99 % LS | % LS (Initial) ([7]; 10% SBECD w/v): 101 % LS | % LS After Stress, Hold ([7]; 10% SBECD w/v, 2-8° C. (48 h)): 101 % LS | % LS After Stress, Hold After Seeding ([7]; 10% SBECD w/v, 2-8° C. (48 h)): 99 % LS | % LS After Stress, Hold ([7]; 10% SBECD w/v, RT (48 h)): 101 % LS | % LS After Stress, Hold After Seeding ([7]; 10% SBECD w/v, RT (48 h)): 98 % LS | % LS After Stress, Freeze-thaw (3x) ([7]; 10% SBECD w/v, after seeding): 98 % LS | % LS After Stress, Freeze-thaw (3x) ([7]; 10% SBECD w/v, without seeding): 100 % LS | % LS (Initial) ([7]; 20% SBECD w/v): 102 % LS | % LS After Stress, Hold ([7]; 20% SBECD w/v, 2-8° C. (48 h)): 101 % LS | % LS After Stress, Hold After Seeding ([7]; 20% SBECD w/v, 2-8° C. (48 h)): 101 % LS | % LS After Stress, Hold ([7]; 20% SBECD w/v, RT (48 h)): 101 % LS | % LS After Stress, Hold After Seeding ([7]; 20% SBECD w/v, RT (48 h)): 101 % LS | % LS After Stress, Freeze-thaw (3x) ([7]; 20% SBECD w/v, after seeding): 100 % LS | % LS After Stress, Freeze-thaw (3x) ([7]; 20% SBECD w/v, without seeding): 100 % LS | osmolarity [8, 13]: 285 mOsm/kg | pH [8, 13]: 6.89 | volume mean diameter particle size [8, 13]: 3.65 μm | particle size by polarized light microscopy ([8]; 100 mg/mL in water with 0.1% w/v HPMC): < 5 μm | EC50 (SARS-CoV2-Nano viruses): 110 nM
